Earlier results on 2 molecules are cited in patent publication US20090118503A1, “FAAH INHIBITORS” (priority 2007, published 2009).

One data set relates to MCF-7 cells. As to conditions: up to 100 μM.

Regarding `Cc1c(CC(=O)O)c2cc(O)ccc2n1C(=O)c1ccc(Cl)cc1` [desmethyl metabolite, (1-(4-chlorobenzoyl)-5-hydroxy-2-methyl-1H-indol-3-yl]acetic acid], the “ability to inhibit prostaglandin synthesis” value in the data set with prostaglandin synthesis is reported as “some ability to inhibit prostaglandin synthesis”.
For the molecule `CCCCC/C=C\C/C=C\C/C=C\C/C=C\CCCC(=O)NCCO` [anandamide], the “cell viability (as assessed by trypan blue)” value in the data set with MCF-7 cells is on record as “No significant decrease in cell viability”.
